Results: patent publication US10004233B2, “Relating to treatment of water” (BWA WATER ADDITIVES UK LIMITED, priority 2015, dated 2018)

Columns and labels:
[1] = tested on: Desulfovibrio vulgaris; assay: Log10 reduction of viable anaerobic bacteria in high-TDS phosphate buffer suspension (API RP 38 media vials); assay type: cell-based; conditions: TDS 30,000 mg l^−1, 5 = complete kill
Protocol: (§1) Aqueous systems inoculated with anaerobe and facultative anaerobe culture and having a total dissolved solids (TDS) concentration of 30,000 mg l^−1 were prepared and treated with treatment agents comprising: (a) a phosphonium compound and (b) an oxazolidine compound. The phosphonium compound (a) used was tri n-butyl n-tetradecyl phosphonium chloride (TTPC). The oxazolidine compound (b) was 4,4-dimethyloxazolidine (DMO).
(§2) A suspension of Desulfovibrio vulgaris plus Enterobacter aerogenes bacteria containing from 1×10^5 to 1×10^6 cells/mL was prepared in sterile pH 8 phosphate buffer containing sodium chloride to give the desired total dissolved solids (TDS) concentration. Aliquots of this suspension were dosed with the indicated concentrations of the compounds (a) and (b) with the concentrations being measured as ppm active. The mixtures were allowed to stand at room temperature. At the designated contact times, each mixture was sampled to determine the total number of viable cells of both Desulfovibrio vulgaris and Enterobacter aerogenes by serial 10-fold dilution into API RP 38 media vials and anaerobic acid producing media vials, respectively. The vials were incubated at 37° C. for 72 hours. Results were recorded as log10 reduction in the viable count versus the control.
(§3) The efficacy of the treatment agents was evaluated by measuring the Log10 Reduction of the anaerobic bacterium Desulfovibrio vulgaris and the facultative anaerobic bacterium Enterobacter aerogenes after contact times of 1 hour, 4 hours and 24 hours as detailed in Table 1. For TTPC the stated ppm value relates to the amount of TTPC added (active). For the 4,4-dimethyloxazolidine the stated ppm relates to the amount of 4,4-dimethyloxazolidine added (active).

[2] = tested on: Enterobacter aerogenes; assay: Log10 reduction of viable facultative anaerobic bacteria in high-TDS phosphate buffer suspension (anaerobic acid producing media vials); assay type: cell-based; conditions: TDS 30,000 mg l^−1, 8 = complete kill
Protocol: as §1, §2, §3

[3] = DMO 40 ppm active, contact time 1 hour
[4] = DMO 40 ppm active, contact time 4 hours
[5] = DMO 40 ppm active, contact time 24 hours
[6] = DMO 80 ppm active, contact time 1 hour
[7] = DMO 80 ppm active, contact time 4 hours
[8] = DMO 80 ppm active, contact time 24 hours
[9] = TTPC 3.125 ppm active, contact time 1 hour
[10] = TTPC 3.125 ppm active, contact time 4 hours
[11] = TTPC 3.125 ppm active, contact time 24 hours
[12] = TTPC 6.25 ppm active, contact time 1 hour
[13] = TTPC 6.25 ppm active, contact time 4 hours
[14] = TTPC 6.25 ppm active, contact time 24 hours

CC1(C)COCN1 [DMO, 4,4-dimethyloxazolidine]
Log10 Reduction Anaerobes [1, 3]: 1
Log10 Reduction Anaerobes [1, 4]: 1
Log10 Reduction Anaerobes [1, 5]: 1
Log10 Reduction Anaerobes [1, 6]: 1
Log10 Reduction Anaerobes [1, 7]: 2
Log10 Reduction Anaerobes [1, 8]: 2
Log10 Reduction Facultative Anaerobes [2, 3]: 0
Log10 Reduction Facultative Anaerobes [2, 4]: 0
Log10 Reduction Facultative Anaerobes [2, 5]: 0
Log10 Reduction Facultative Anaerobes [2, 6]: 0
Log10 Reduction Facultative Anaerobes [2, 7]: 0
Log10 Reduction Facultative Anaerobes [2, 8]: 0

CCCCCCCCCCCCCC[P+](CCCC)(CCCC)CCCC.[Cl-] [TTPC, tri n-butyl n-tetradecyl phosphonium chloride]
Log10 Reduction Anaerobes [1, 9]: 1
Log10 Reduction Anaerobes [1, 10]: 5
Log10 Reduction Anaerobes [1, 11]: 5
Log10 Reduction Anaerobes [1, 12]: 2
Log10 Reduction Anaerobes [1, 13]: 5
Log10 Reduction Anaerobes [1, 14]: 5
Log10 Reduction Facultative Anaerobes [2, 9]: 1
Log10 Reduction Facultative Anaerobes [2, 10]: 2
Log10 Reduction Facultative Anaerobes [2, 11]: 4
Log10 Reduction Facultative Anaerobes [2, 12]: 3
Log10 Reduction Facultative Anaerobes [2, 13]: 4
Log10 Reduction Facultative Anaerobes [2, 14]: 5
